Reference: patent publication US11192852B2, “Pyrazolyl and pyrimidinyl tricyclic enones as antioxidant inflammation modulators” (REATA PHARMACEUTICALS, INC., priority 2010, dated 2021)

These molecules were tested on IFNγ-induced NO production in RAW264.7 mouse macrophages (assay: Suppression of IFNγ-induced nitric oxide production (Griess reagent)). Conditions: Mus musculus, RAW264.7, RAW264.7 cells, 2 h pre-treatment (0-200 nM), then IFNγ 24 h; normalized to cell viability.
Type: cell-based
Text: Nitric Oxide Production and Cell Viability.

`CC1(C)C(=O)C(C#N)=C[C@]2(C)c3ncncc3CC[C@@H]12` [TX63542] and `CC1(C)C(=O)C(C#N)=C[C@]2(C)c3nc(C(F)(F)F)ncc3CC[C@@H]12` [TX63567] are within 1.5-fold of each other in IC50: 55 nM for the first, 43 nM for the second.

Going from `CC1(C)C(=O)C(C#N)=C[C@]2(C)c3nn(-c4ccccc4)c(-c4ccccc4)c3CC[C@@H]12` [TX63544] to `CC(=O)n1nc2c(c1-c1ccccc1)CC[C@H]1C(C)(C)C(=O)C(C#N)=C[C@]21C` [TX63611], the IC50 falls from 39 nM to 22 nM (1.8-fold).

`C[C@@H]1C(=O)C(C#N)=C[C@]2(C)c3nn(C)cc3CC[C@@H]12` [TX63551] and `CC[C@@H]1C(=O)C(C#N)=C[C@]2(C)c3nn(C)cc3CC[C@@H]12` [TX63589] are within 1.5-fold of each other in IC50: 49 nM for the first, 44 nM for the second.

`CC1(C)C(=O)C(C#N)=C[C@]2(C)c3[nH]c(=O)ncc3CC[C@@H]12` [TX63553] and `Cn1[nH]c2c(c1=O)CC[C@H]1C(C)(C)C(=O)C(C#N)=C[C@]21C` [TX63676] cannot be ordered by IC50: > 200 nM for the first, > 200 nM for the second.

First: Cn1cc2c(n1)[C@@]1(C)C=C(C#N)C(=O)C(C)(C)[C@@H]1C2 [TX63559]
Second: Cc1c2c(nn1C)[C@@]1(C)C=C(C#N)C(=O)C(C)(C)[C@@H]1CC2 [TX63637]
The IC50 of the first is higher: > 200 nM for the first, 45 nM for the second.

`Cn1nc2c(c1-c1ccccc1)CC[C@H]1CC(=O)C=C[C@]21C` [TX63570] and `Cn1nc2c(c1-c1ccccc1)CCC1=CC(=O)C=C[C@@]12C` [TX63578] cannot be ordered by IC50: > 200 nM for the first, > 200 nM for the second.

First: CC1(C)C(=O)C(C#N)=C[C@]2(C)c3[nH]nc(-c4ccccc4)c3CC[C@@H]12 [TX63579]
Second: Cn1nc2c(c1C(=O)c1ccccc1)CC[C@H]1C(C)(C)C(=O)C(C#N)=C[C@]21C [TX63667]
The IC50 of the first is 7-fold lower: 22 nM for the first, 155 nM for the second. The first is the more potent here.

`CC1(C)C(=O)C(C#N)=C[C@]2(C)c3nc(-c4ccc(Cl)cc4)ncc3CC[C@@H]12` [TX63582] and `COc1ccc(-c2ncc3c(n2)[C@@]2(C)C=C(C#N)C(=O)C(C)(C)[C@@H]2CC3)cc1` [TX63590] are within 1.5-fold of each other in IC50: 33 nM for the first, 31 nM for the second.

`Cc1cccc(-c2ncc3c(n2)[C@@]2(C)C=C(C#N)C(=O)C(C)(C)[C@@H]2CC3)c1` [TX63583] and `CC1(C)C(=O)C(C#N)=C[C@]2(C)c3nc(-c4ccncc4)ncc3CC[C@@H]12` [TX63636] are within 1.5-fold of each other in IC50: 33 nM for the first, 27 nM for the second.

`Cn1nc2c(c1-c1ccc(Oc3ccccc3)cc1)CC[C@H]1C(C)(C)C(=O)C(C#N)=C[C@]21C` [TX63587] and `Cn1nc2c(c1-c1ccc3ccccc3c1)CC[C@H]1C(C)(C)C(=O)C(C#N)=C[C@]21C` [TX63600] are within 1.5-fold of each other in IC50: 40 nM for the first, 59 nM for the second.

`Cn1nc2c(c1C1CCCCC1)CC[C@H]1C(C)(C)C(=O)C(C#N)=C[C@]21C` [TX63591] and `Cn1nc2c(c1C#N)CC[C@H]1C(C)(C)C(=O)C(C#N)=C[C@]21C` [TX63613] are within 1.5-fold of each other in IC50: 74 nM for the first, 101 nM for the second.

`Cn1nc2c(c1NC(=O)OC(C)(C)C)CC[C@H]1C(C)(C)C(=O)C(C#N)=C[C@]21C` [TX63594] and `Cn1nc2c(c1C(N)=O)CC[C@H]1C(C)(C)C(=O)C(C#N)=C[C@]21C` [TX63619] cannot be ordered by IC50: > 200 nM for the first, > 200 nM for the second.

Going from `COc1nc(C)nc2c1CC[C@H]1C(C)(C)C(=O)C(C#N)=C[C@]21C` [TX63595] to `COc1nc(C)nc2c1CC[C@H]1[C@H](C)C(=O)C(C#N)=C[C@]21C` [TX63646], the IC50 falls from 20 nM to 8.5 nM (2.4-fold).

`Cn1nc2c(c1-c1ccccc1)CC[C@H]1C(Cc3ccccc3)(Cc3ccccc3)C(=O)C(C#N)=C[C@]21C` [TX63601] and `Cn1nc2c(c1-c1ccccc1)CC[C@H]1[C@H](c3ccccc3)C(=O)C(C#N)=C[C@]21C` [TX63629] are within 1.5-fold of each other in IC50: 150 nM for the first, 137 nM for the second.

Compared with `Cn1nc2c(c1-c1cccc3ccccc13)CC[C@H]1C(C)(C)C(=O)C(C#N)=C[C@]21C` [TX63603], `Cn1nc2c(c1-c1nnn(Cc3ccccc3)n1)CC[C@H]1C(C)(C)C(=O)C(C#N)=C[C@]21C` [TX63729] is 2.1-fold lower in IC50: 61 nM for the first, 29 nM for the second.

First: C[C@@H]1C(=O)C(C#N)=C[C@]2(C)c3nn(C)c(Br)c3CC[C@@H]12 [TX63606]
Second: C[C@@H]1C(=O)C(C#N)=C[C@]2(C)c3nn(C)c(C#N)c3CC[C@@H]12 [TX63725]
The IC50 of the first is 2.2-fold lower: 11 nM for the first, 24 nM for the second.

`CC1(C)C(=O)C(C#N)=C[C@]2(C)c3nc(-c4ccccc4Cl)ncc3CC[C@@H]12` [TX63612] and `CC1(C)C(=O)C(C#N)=C[C@]2(C)c3nc(-c4ccccn4)ncc3CC[C@@H]12` [TX63641] are the same in IC50: 43 nM for the first, 43 nM for the second.

`CC1(C)C(=O)C(C#N)=C[C@]2(C)c3c(cnc4c(Br)cnn34)CC[C@@H]12` [TX63615] and `CC1(C)C(=O)C(C#N)=C[C@]2(C)c3c(cnc4ccnn34)CC[C@@H]12` [TX63627] are within 1.5-fold of each other in IC50: 52 nM for the first, 38 nM for the second.

Compared with `CC1(C)C(=O)C(C#N)=C[C@]2(C)c3nc4c(Br)cnn4cc3CC[C@@H]12` [TX63617], `Cc1nc(-c2ncc3c(n2)[C@@]2(C)C=C(C#N)C(=O)C(C)(C)[C@@H]2CC3)cs1` [TX63628] is 1.9-fold higher in IC50: 33 nM for the first, 62 nM for the second.

Compared with `Cc1noc(C)c1-c1c2c(nn1C)[C@@]1(C)C=C(C#N)C(=O)C(C)(C)[C@@H]1CC2` [TX63625], `Cc1nc(-c2c3c(nn2C)[C@@]2(C)C=C(C#N)C(=O)C(C)(C)[C@@H]2CC3)no1` [TX63723] is 2.2-fold lower in IC50: 77 nM for the first, 35 nM for the second. The second is the more potent here.

Compared with `CC1(C)C(=O)C(C#N)=C[C@]2(C)c3c(cnc4c(-c5ccccc5)cnn34)CC[C@@H]12` [TX63626], `CC1(C)C(=O)C(C#N)=C[C@]2(C)c3nn(C(=O)c4ccccc4)cc3CC[C@@H]12` [TX63642] is 3.9-fold higher in IC50: 38 nM for the first, 147 nM for the second. The first is the more potent here.

Compared with `CCOC(=O)c1c2c(nn1C)[C@@]1(C)C=C(C#N)C(=O)C(C)(C)[C@@H]1CC2` [TX63630], `Cn1nc2c(c1C(=O)O)CC[C@H]1C(C)(C)C(=O)C(C#N)=C[C@]21C` [TX63631] is higher in IC50: 38 nM for the first, > 200 nM for the second. The first is the more potent here.

Compared with `C[C@@H]1C(=O)C(C#N)=C[C@]2(C)c3c(c(Br)nn3C)CC[C@@H]12` [TX63649], `C[C@@H]1C(=O)C(C#N)=C[C@]2(C)c3nn(C)c(C(=O)N(C)C)c3CC[C@@H]12` [TX63655] is higher in IC50: 21 nM for the first, > 200 nM for the second.

`Cc1cccc(-c2c3c(nn2C)[C@@]2(C)C=C(C#N)C(=O)[C@@H](C)[C@@H]2CC3)c1` [TX63650] and `C[C@@H]1C(=O)C(C#N)=C[C@]2(C)c3nn(C)c(-c4cccc(F)c4)c3CC[C@@H]12` [TX63659] are within 1.5-fold of each other in IC50: 6.1 nM for the first, 8.1 nM for the second.

Going from `C#Cc1c2c(nn1C)[C@@]1(C)C=C(C#N)C(=O)C(C)(C)[C@@H]1CC2` [TX63651] to `COc1c2c(nn1C)[C@@]1(C)C=C(C#N)C(=O)C(C)(C)[C@@H]1CC2` [TX63691], the IC50 rises from 23 nM to 62 nM (2.7-fold). The first is the more potent here.

Going from `CC1=C2CCc3c(nn(C)c3-c3cccc(C)c3)[C@@]2(C)C=C(C#N)C1=O` [TX63656] to `CC1=C2CCc3c(nn(C)c3-c3cccc(F)c3)[C@@]2(C)C=C(C#N)C1=O` [TX63663], the IC50 falls from > 200 nM to 108 nM. The second is the more potent here.

`COc1cccc(-c2c3c(nn2C)[C@@]2(C)C=C(C#N)C(=O)[C@@H](C)[C@@H]2CC3)c1` [TX63664] and `C[C@@H]1C(=O)C(C#N)=C[C@]2(C)c3nn(C)c(-c4cccnc4)c3CC[C@@H]12` [TX63722] are within 1.5-fold of each other in IC50: 8 nM for the first, 8.3 nM for the second.

Going from `Cn1nnc(-c2c3c(nn2C)[C@@]2(C)C=C(C#N)C(=O)C(C)(C)[C@@H]2CC3)n1` [TX63665] to `CC(C)n1nnc(-c2c3c(nn2C)[C@@]2(C)C=C(C#N)C(=O)C(C)(C)[C@@H]2CC3)n1` [TX63734], the IC50 rises from 14 nM to 43 nM (3.1-fold). The first is the more potent here.

`C[C@@H]1C(=O)C(C#N)=C[C@]2(C)c3nc(-c4ccccc4)n(C)c(=O)c3CC[C@@H]12` [TX63666] and `CCOc1nc(-c2ccccc2)nc2c1CC[C@H]1[C@H](C)C(=O)C(C#N)=C[C@]21C` [TX63731] are within 1.5-fold of each other in IC50: 25 nM for the first, 32 nM for the second.

Compared with `C[C@@H]1C(=O)C(C#N)=C[C@]2(C)c3nn(C)c(-c4cnn(C)c4)c3CC[C@@H]12` [TX63690], `C[C@@H]1C(=O)C(C#N)=C[C@]2(C)c3nn(C)c(-c4cncnc4)c3CC[C@@H]12` [TX63748] is 2.1-fold higher in IC50: 11 nM for the first, 23 nM for the second.

`CN1N=C2C(C)(CC[C@H]3C(C)(C)C(=O)C(C#N)=C[C@]23C)C1=O` (some centres unmarked) [TX63692] and `Cn1cnc(-c2c3c(nn2C)[C@@]2(C)C=C(C#N)C(=O)C(C)(C)[C@@H]2CC3)n1` [TX63714] cannot be ordered by IC50: > 200 nM for the first, > 200 nM for the second.

`C[C@@H]1C(=O)C(C#N)=C[C@]2(C)c3nn(C)c(-c4nnn(C)n4)c3CC[C@@H]12` [TX63719] and `C[C@@H]1C(=O)C(C#N)=C[C@]2(C)c3nn(C)c(-c4ccncc4)c3CC[C@@H]12` [TX63720] are within 1.5-fold of each other in IC50: 5.9 nM for the first, 4.9 nM for the second.

`C[C@@H]1C(=O)C(C#N)=C[C@]2(C)c3nn(C)c(-c4ccccc4F)c3CC[C@@H]12` [TX63721] and `COc1ccccc1-c1nc(OC)c2c(n1)[C@@]1(C)C=C(C#N)C(=O)[C@@H](C)[C@@H]1CC2` [TX63727] are within 1.5-fold of each other in IC50: 7.8 nM for the first, 11.5 nM for the second.

Compared with `COc1nc(-c2ccncc2)nc2c1CC[C@H]1[C@H](C)C(=O)C(C#N)=C[C@]21C` [TX63728], `COc1nc(-c2cncnc2)nc2c1CC[C@H]1[C@H](C)C(=O)C(C#N)=C[C@]21C` [TX63757] is 1.6-fold lower in IC50: 6.7 nM for the first, 4.3 nM for the second. The second is the more potent here.

Compared with `CCOC(=O)c1nc(OC)c2c(n1)[C@@]1(C)C=C(C#N)C(=O)[C@@H](C)[C@@H]1CC2` [TX63730], `CCOc1nc(C)nc2c1CC[C@H]1[C@H](C)C(=O)C(C#N)=C[C@]21C` [TX63773] is 2.7-fold lower in IC50: 16 nM for the first, 6 nM for the second. The second is the more potent here.

First: Cc1nnc(-c2c3c(nn2C)[C@@]2(C)C=C(C#N)C(=O)C(C)(C)[C@@H]2CC3)o1 [TX63735]
Second: Cc1noc(-c2c3c(nn2C)[C@@]2(C)C=C(C#N)C(=O)C(C)(C)[C@@H]2CC3)n1 [TX63760]
The IC50 of the first is 2.5-fold higher: 15.6 nM for the first, 6.2 nM for the second.

`CCOc1nc(OCC)c2c(n1)[C@@]1(C)C=C(C#N)C(=O)[C@@H](C)[C@@H]1CC2` [TX63736] and `COc1nc(C2CC2)nc2c1CC[C@H]1[C@H](C)C(=O)C(C#N)=C[C@]21C` [TX63761] are within 1.5-fold of each other in IC50: 9.8 nM for the first, 8.9 nM for the second.

Going from `Cc1nc(N2CCOCC2)c2c(n1)[C@@]1(C)C=C(C#N)C(=O)[C@@H](C)[C@@H]1CC2` [TX63758] to `Cc1nc(N(C)C)c2c(n1)[C@@]1(C)C=C(C#N)C(=O)[C@@H](C)[C@@H]1CC2` [TX63774], the IC50 falls from 55 nM to 26.7 nM (2.1-fold). The second is the more potent here.

Same assay, conditions: RAW264.7 cells, 2 h pre-treatment (0-200 nM), then IFNγ 24 h; normalized to cell viability

`COc1nc(OC)c2c(n1)[C@@]1(C)C=C(C#N)C(=O)[C@@H](C)[C@@H]1CC2` [TX63718] gave an IC50 of 6 nM.
